Laboratory results as given in US8471005B2 (Cephalon, Inc., priority 2008, dated 2013).
Like-named read-outs stand apart in the source and are kept apart here.

How the values were obtained:
ALK = molecular target: T1, ALK (Homo sapiens, UniProt Q9UM73); assay: ALK Kinase Assay (ELISA/TRF, PLC-γ substrate); type: biochemical; conditions: read-out: ALK Potency
T1 construct: host or cells: baculovirus expression system
Method: Briefly, each 96-well plate was coated with […] of 10 μg/mL substrate (phospholipase C-γ) in Tris-buffered saline (TBS). […] The reaction was initiated by adding enzyme (30 ng/ml ALK) and was allowed to proceed at 37° C. for 15 minutes. Detection of the phosphorylated product was performed by adding 100 μl/well of Eu—N1 labeled PT66 antibody (Perkin Elmer # AD0041).
Data analysis was performed using ActivityBase (IDBS, Guilford, UK). IC50 values were calculated by plotting percent inhibition versus log10 of the concentration of compound and fitting to the nonlinear regression sigmoidal dose-response (variable slope) equation in XLFit (IDBS, Guilford, UK).

JAK2 = molecular target: T2, JAK2 (Homo sapiens, UniProt O60674); assay: Recombinant Human JAK2 Kinase Assay (TRF); type: biochemical; conditions: read-out: JAK2 Potency
T2 construct: host or cells: baculovirus expression system
T2 sequence (O60674 whole entry): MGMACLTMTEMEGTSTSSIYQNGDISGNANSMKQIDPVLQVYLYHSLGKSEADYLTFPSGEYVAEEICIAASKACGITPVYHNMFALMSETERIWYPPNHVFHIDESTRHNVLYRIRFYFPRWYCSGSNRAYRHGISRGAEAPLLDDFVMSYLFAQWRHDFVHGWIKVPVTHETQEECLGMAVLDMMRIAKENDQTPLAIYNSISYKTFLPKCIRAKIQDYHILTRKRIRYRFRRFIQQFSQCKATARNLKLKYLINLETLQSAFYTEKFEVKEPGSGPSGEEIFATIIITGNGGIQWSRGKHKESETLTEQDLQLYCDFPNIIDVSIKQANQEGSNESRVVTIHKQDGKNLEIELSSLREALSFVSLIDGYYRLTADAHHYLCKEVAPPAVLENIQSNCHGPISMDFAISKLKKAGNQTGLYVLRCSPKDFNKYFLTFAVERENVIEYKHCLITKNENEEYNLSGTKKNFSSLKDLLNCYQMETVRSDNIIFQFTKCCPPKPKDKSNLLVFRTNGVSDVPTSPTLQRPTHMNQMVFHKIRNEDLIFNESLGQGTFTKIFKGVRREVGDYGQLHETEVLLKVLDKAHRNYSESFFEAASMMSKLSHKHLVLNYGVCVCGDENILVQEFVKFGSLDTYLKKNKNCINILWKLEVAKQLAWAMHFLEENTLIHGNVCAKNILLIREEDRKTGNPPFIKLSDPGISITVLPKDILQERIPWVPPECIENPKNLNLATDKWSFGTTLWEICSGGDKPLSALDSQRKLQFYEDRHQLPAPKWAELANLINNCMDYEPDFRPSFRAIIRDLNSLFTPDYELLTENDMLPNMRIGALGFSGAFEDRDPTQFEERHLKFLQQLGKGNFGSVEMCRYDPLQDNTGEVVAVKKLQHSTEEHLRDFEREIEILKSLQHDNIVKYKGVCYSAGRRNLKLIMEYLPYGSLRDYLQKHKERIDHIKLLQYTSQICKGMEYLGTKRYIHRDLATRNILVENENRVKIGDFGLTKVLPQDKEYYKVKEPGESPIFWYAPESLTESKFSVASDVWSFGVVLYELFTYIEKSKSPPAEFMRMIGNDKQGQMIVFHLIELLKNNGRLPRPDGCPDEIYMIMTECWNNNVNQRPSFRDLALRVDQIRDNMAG
Method: Compounds were tested for their ability to inhibit the kinase activity of baculovirus-expressed JAK2 using the TRF detection system. […] The plates were coated first with 100 μL/well of 10 μg/mL Neutravidin (Pierce #31000, Rockford, Ill.) in TBS at 37° C. for 2 hours, followed by 100 μL/well of 1 μg/mL 15-mer peptide substrate (biotinyl-amino-hexanoyl-[…]-amide, Infinity Biotech Research and Resource, Aston, Pa.) at 37° C. for another hour. The JAK2 assay mixture (total volume=100 μL/well) consisting of 20 mM HEPES (pH 7.2), 0.2 μM ATP, 1 mM MnCl2, 0.1% BSA, and test compound (diluted in DMSO; 2.5% DMSO final in assay) was then added to the assay plate. Enzyme (15 ng/ml JAK2) was added and the reaction was allowed to proceed at room temperature for 20 minutes. Detection of the phosphorylated product was performed by adding 100 μL/well of Eu—N1 labeled PY100 antibody (PerkinElmer Life Sciences #AD0041, Boston, Mass.).

[1] = ALK kinase inhibition, 1 μM ATP
[2] = JAK2 kinase inhibition, 0.2 μM ATP

T1 sequence (Q9UM73 19-1620): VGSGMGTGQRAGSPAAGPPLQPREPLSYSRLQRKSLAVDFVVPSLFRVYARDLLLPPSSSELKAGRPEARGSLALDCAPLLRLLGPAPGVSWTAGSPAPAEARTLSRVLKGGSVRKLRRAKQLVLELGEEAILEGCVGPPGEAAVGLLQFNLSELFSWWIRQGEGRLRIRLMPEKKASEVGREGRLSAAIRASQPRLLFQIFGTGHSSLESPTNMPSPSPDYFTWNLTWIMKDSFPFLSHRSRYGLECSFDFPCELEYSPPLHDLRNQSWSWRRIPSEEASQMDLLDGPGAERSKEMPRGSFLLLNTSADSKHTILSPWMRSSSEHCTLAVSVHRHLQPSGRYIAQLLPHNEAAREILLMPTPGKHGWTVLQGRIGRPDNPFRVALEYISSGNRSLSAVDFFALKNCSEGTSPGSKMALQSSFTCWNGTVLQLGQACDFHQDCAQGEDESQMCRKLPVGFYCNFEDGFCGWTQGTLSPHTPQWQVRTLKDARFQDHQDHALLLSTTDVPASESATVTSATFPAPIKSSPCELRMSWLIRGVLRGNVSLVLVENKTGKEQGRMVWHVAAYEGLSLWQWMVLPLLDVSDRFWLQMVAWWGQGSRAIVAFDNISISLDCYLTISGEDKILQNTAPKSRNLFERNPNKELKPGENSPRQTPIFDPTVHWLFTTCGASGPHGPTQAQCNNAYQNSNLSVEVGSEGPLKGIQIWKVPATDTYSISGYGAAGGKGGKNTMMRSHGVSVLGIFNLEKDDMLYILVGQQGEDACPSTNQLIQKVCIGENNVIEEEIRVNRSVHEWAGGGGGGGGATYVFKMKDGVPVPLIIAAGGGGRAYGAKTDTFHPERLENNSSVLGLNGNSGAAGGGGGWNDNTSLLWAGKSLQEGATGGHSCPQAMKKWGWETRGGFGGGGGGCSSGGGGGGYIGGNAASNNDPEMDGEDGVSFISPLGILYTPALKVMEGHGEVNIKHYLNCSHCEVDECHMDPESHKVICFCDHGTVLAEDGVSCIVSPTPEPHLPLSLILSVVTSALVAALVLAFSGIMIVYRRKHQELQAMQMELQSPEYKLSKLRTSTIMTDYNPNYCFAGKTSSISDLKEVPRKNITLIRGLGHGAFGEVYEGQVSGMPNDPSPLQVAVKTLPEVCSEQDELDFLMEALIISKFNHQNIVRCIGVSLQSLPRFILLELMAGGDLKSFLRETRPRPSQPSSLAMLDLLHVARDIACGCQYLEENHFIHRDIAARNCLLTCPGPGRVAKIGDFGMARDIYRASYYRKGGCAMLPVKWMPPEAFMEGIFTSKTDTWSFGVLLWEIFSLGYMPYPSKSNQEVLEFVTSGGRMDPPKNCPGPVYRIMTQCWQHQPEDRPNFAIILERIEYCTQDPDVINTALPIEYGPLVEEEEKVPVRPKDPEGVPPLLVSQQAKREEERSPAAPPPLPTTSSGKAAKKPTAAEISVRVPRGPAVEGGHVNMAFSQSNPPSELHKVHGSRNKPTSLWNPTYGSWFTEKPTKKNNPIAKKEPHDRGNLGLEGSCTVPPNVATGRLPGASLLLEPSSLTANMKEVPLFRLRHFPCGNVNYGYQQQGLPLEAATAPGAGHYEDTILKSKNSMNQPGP

Compound | IC50 (ALK; [1]) [nM] | IC50 (JAK2; [2]) [nM] | IC50 (ALK; ALK Kinase Inhibition) [nM] | IC50 (JAK2; JAK2 Kinase Inhibition) [nM]
COc1cc(C2CCN(CCO)CC2)ccc1Nc1ncc2ccc(-c3cccc4c3OCC4)n2n1 [Example 702, 2-(4-{4-[7-(2,3-Dihydro-benzofuran-7-yl)-pyrrolo[2,1-f][1,2,4]triazin-2-ylamino]-3-methoxy-phenyl}-piperidin-1-yl)-ethanol] | < 100 | 100 to 1000 |  | 
Cc1cc(Nc2ncc3ccc(-c4cccc(S(=O)(=O)NC(C)(C)C)c4)n3n2)ccc1C1CCN(C)CC1 [Example 940, N-tert-Butyl-3-{2-[3-methyl-4-(1-methyl-piperidin-4-yl)-phenylamino]-pyrrolo[2,1-f][1,2,4]triazin-7-yl}-benzenesulfonamide] | < 100 | < 100 |  | 
CN1CCN(c2ccc(Nc3ncc4ccc(-c5cccnc5Cl)n4n3)cc2)CC1 [Example 1036, [7-(2-Chloro-pyridin-3-yl)-pyrrolo[2,1-f][1,2,4]triazin-2-yl]-[4-(4-methyl-piperazin-1-yl)-phenyl]-amine] | 100 to 1000 | < 100 |  | 
COc1cc(N2CCC(N3CC[C@@H](O)C3)CC2)ccc1Nc1ncc2ccc(-c3ccccc3OC)n2n1 [Example 479, (R)-1-(1-{3-Methoxy-4-[7-(2-methoxy-phenyl)-pyrrolo[2,1-f][1,2,4]triazin-2-ylamino]-phenyl}-piperidin-4-yl)-pyrrolidin-3-ol] | < 100 | < 100 |  | 
COc1cc(N(C)C(=O)CN2CCOCC2)ccc1Nc1ncc2ccc(-c3ccccc3OC)n2n1 [Example 472, N-{3-Methoxy-4-[7-(2-methoxy-phenyl)-pyrrolo[2,1-f][1,2,4]triazin-2-ylamino]-phenyl}-N-methyl-2-morpholin-4-yl-acetamide] | < 100 | 100 to 1000 |  | 
COc1cc2c(cc1Nc1ncc3ccc(-c4cccc5c4OCC5)n3n1)CCCC(N1CCN(CCO)CC1)C2 (stereo not shown) [Example 707, 2-(4-{2-[7-(2,3-Dihydro-benzofuran-7-yl)-pyrrolo[2,1-f][1,2,4]triazin-2-ylamino]-3-methoxy-6,7,8,9-tetrahydro-5H-benzocyclohepten-6-yl}-piperazin-1-yl)-ethanol] | < 100 | 100 to 1000 |  | 
COCCN1CCc2cc(Nc3ncc4ccc(-c5ccccc5OC)n4n3)c(OC)cc2CC1 [Example 48, [8-Methoxy-3-(2-methoxy-ethyl)-2,3,4,5-tetrahydro-1H-benzo[d]azepin-7-yl]-[7-(2-methoxy-phenyl)-pyrrolo[2,1-f][1,2,4]triazin-2-yl]-amine] |  |  | < 100 | 100 to 1000
COc1cc([C@@]2(O)CCN(C(=O)OC(C)(C)C)C[C@@H]2O)ccc1Nc1ncc2ccc(-c3ccccc3OC)n2n1 (racemic) [Example 831, (±)-(3S,4S)-3,4-Dihydroxy-4-{3-methoxy-4-[7-(2-methoxy-phenyl)-pyrrolo[2,1-f][1,2,4]triazin-2-ylamino]-phenyl}-piperidine-1-carboxylic acid tert-butyl ester] |  | 100 to 1000 |  | 
COc1cc([C@@H]2CCN(CC(N)=O)C[C@@H]2O)ccc1Nc1ncc2ccc(-c3ccccc3OC)n2n1 (racemic) [Example 839, (±)-2-43R,4S)-3-Hydroxy-4-{3-methoxy-4-[7-(2-methoxy-phenyl)-pyrrolo[2,1-f][1,2,4]triazin-2-ylamino]-phenyl}-piperidin-1-yl)-acetamide] |  | 100 to 1000 |  | 
COc1cc([C@@]2(O)CCNC[C@@H]2O)ccc1Nc1ncc2ccc(-c3ccccc3N(C)S(C)(=O)=O)n2n1 (racemic) [Example 840, (±)-N-(2-{2-[4-((3S,4S)-3,4-Dihydroxy-piperidin-4-yl)-2-methoxy-phenylamino]-pyrrolo[2,1-f][1,2,4]triazin-7-yl}-phenyl)-N-methyl-methanesulfonamide] |  | 1000 to 10000 |  | 
COc1cc([C@@H]2CCNC[C@@H]2O)ccc1Nc1ncc2ccc(-c3ccccc3OC)n2n1 (racemic) [Example 835, (±)-(3R,4S)-4-{3-Methoxy-4-[7-(2-methoxy-phenyl)-pyrrolo[2,1-f][1,2,4]triazin-2-ylamino]-phenyl}-piperidin-3-ol] |  | 100 to 1000 |  | 

Now from value to compound:

IC50 (ALK; [1]) [nM] | IC50 (JAK2; [2]) [nM] | IC50 (ALK; ALK Kinase Inhibition) [nM] | IC50 (JAK2; JAK2 Kinase Inhibition) [nM] | Compound
< 100 | 1000 to 10000 |  |  | COc1cc(C2CCN(CC3CCN3C)CC2)ccc1Nc1ncc2ccc(-c3ccccc3N(C)S(C)(=O)=O)n2n1 (racemic) [Example 871, (±)-N-[2-(2-{2-Methoxy-4-[1-(1-methyl-azetidin-2-ylmethyl)-piperidin-4-yl]-phenylamino}-pyrrolo[2,1-f][1,2,4]triazin-7-yl)-phenyl]-N-methyl-methanesulfonamide]
 |  | 100 to 1000 | < 100 | O=S(=O)(c1cccc(-c2ccc3cnc(Nc4ccc(N5CCOCC5)cc4)nn23)c1)N1CCCC1 [Example 358, (4-Morpholin-4-yl-phenyl)-{7-[3-(pyrrolidine-1-sulfonyl)-phenyl]-pyrrolo[2,1-f][1,2,4]triazin-2-yl}-amine]
< 100 | 100 to 1000 |  |  | COc1cc(C2CCN(CCF)CC2)ccc1Nc1ncc2ccc(-c3ccccc3N(C)S(C)(=O)=O)n2n1 [Example 792, N-[2-(2-{4-[1-(2-Fluoro-ethyl)-piperidin-4-yl]-2-methoxy-phenylamino}-pyrrolo[2,1-f][1,2,4]triazin-7-yl)-phenyl]-N-methyl-methanesulfonamide]
< 100 | 100 to 1000 |  |  | (S)-1-(4-{4-[7-(4-Chloro-2-methoxy-phenyl)-pyrrolo[2,1-f][1,2,4]triazin-2-ylamino]-3-methoxy-phenyl}-piperazin-1-yl)-propan-2-ol [Example 487]
100 to 1000 | < 100 |  |  | CN1CCN(c2ccc(Nc3ncc4ccc(NCc5cccc([N+](=O)[O-])c5)n4n3)cc2)CC1 [Example 1163, N(2)-[4-(4-Methyl-piperazin-1-yl)-phenyl]-N(7)-(3-nitro-benzyl)-pyrrolo[2,1-f][1,2,4]triazine-2,7-diamine]
 |  | 1000 to 10000 | < 100 | CC(C)S(=O)(=O)c1ccc(-c2ccc3cnc(Nc4cccc(N5CCOCC5)c4)nn23)cc1 [Example 192, (3-Morpholin-4-yl-phenyl)-{7-[4-(propane-2-sulfonyl)-phenyl]-pyrrolo[2,1-f][1,2,4]triazin-2-yl}-amine]
100 to 1000 | < 100 |  |  | CN1CCN(c2ccc(Nc3ncc4ccc(-c5cccc(CNCCS(C)(=O)=O)c5)n4n3)cc2)CC1 [Example 1162, (7-{3-[(2-Methanesulfonyl-ethylamino)-methyl]-phenyl}-pyrrolo[2,1-f][1,2,4]triazin-2-yl)-[4-(4-methyl-piperazin-1-yl)-phenyl]-amine]
 |  | 100 to 1000 | < 100 | C[C@@H](O)CN1CCN(c2ccc(Nc3ncc4ccc(-c5ccc(S(C)(=O)=O)cc5)n4n3)cc2)CC1 [Example 209, (R)-1-(4-{4-[7-(4-Methanesulfonyl-phenyl)-pyrrolo[2,1-f][1,2,4]triazin-2-ylamino]-phenyl}-piperazin-1-yl)-propan-2-ol]
 | < 100 |  |  | COc1cc([C@@]2(O)CCN(CC(N)=O)C[C@@H]2O)ccc1Nc1ncc2ccc(-c3ccccc3OC)n2n1 (racemic) [Example 849, (±)-2-43S,4S)-3,4-Dihydroxy-4-{3-methoxy-4-[7-(2-methoxy-phenyl)-pyrrolo[2,1-f][1,2,4]triazin-2-ylamino]-phenyl}-piperidin-1-yl)-acetamide]
 | < 100 |  |  | COc1cc([C@@H]2CCN(CCO)C[C@@H]2O)ccc1Nc1ncc2ccc(-c3ccccc3OC)n2n1 (racemic) [Example 848, (±)-(3R,4S)-1-(2-Hydroxy-ethyl)-4-{3-methoxy-4-[7-(2-methoxy-phenyl)-pyrrolo[2,1-f][1,2,4]triazin-2-ylamino]-phenyl}-piperidin-3-ol]
 | < 100 |  |  | COc1cc([C@@]2(O)CCN(C)C[C@@H]2O)ccc1Nc1ncc2ccc(-c3ccccc3OC)n2n1 (racemic) [Example 829, (±)-(3S,4S)-4-{3-Methoxy-4-[7-(2-methoxy-phenyl)-pyrrolo[2,1-f][1,2,4]triazin-2-ylamino]-phenyl}-1-methyl-piperidine-3,4-diol]
 | 100 to 1000 |  |  | COc1cc([C@@]2(O)CCN(CC(N)=O)C[C@@H]2O)ccc1Nc1ncc2ccc(-c3ccccc3N(C)S(C)(=O)=O)n2n1 (racemic) [Example 844, (±)-2-[(3S,4S)-3,4-Dihydroxy-4-(4-{7-[2-(methanesulfonyl-methyl-amino)-phenyl]-pyrrolo[2,1-f][1,2,4]triazin-2-ylamino}-3-methoxy-phenyl)-piperidin-1-yl]-acetamide]
 | 100 to 1000 |  |  | CN1CCN(c2ccc(Nc3ncc4cc(-c5cccnc5)cn4n3)cc2)CC1 [Example 1157]
 | < 100 |  |  | COc1cc(C2CCN(C)CC2O)ccc1Nc1ncc2ccc(-c3ccccc3OC)n2n1 (racemic) [Example 830, (±)-4-{3-Methoxy-4-[7-(2-methoxy-phenyl)-pyrrolo[2,1-f][1,2,4]triazin-2-ylamino]-phenyl}-1-methyl-piperidin-3-ol]
